In PubChem BioAssay AID588715 (Vanderbilt Specialized Chemistry Center, 2011):
Activity calls are given as the source filed them. The rule behind the calls is not given here.

These compounds were tested against Metabotropic glutamate receptor 5 (Rattus norvegicus) (UniProt P31424) (assay: mGluR5 positive allosteric modulators, SAR follow-up, cell-based, HEK293A, calcium mobilization, rat (AID 588715)). Details: HEK293A rat mGluR5, Ca2+ mobilization fluorescence, PAM.
Metabotropic glutamate receptor 5 (Rattus norvegicus), sequence (P31424 whole entry, looked up): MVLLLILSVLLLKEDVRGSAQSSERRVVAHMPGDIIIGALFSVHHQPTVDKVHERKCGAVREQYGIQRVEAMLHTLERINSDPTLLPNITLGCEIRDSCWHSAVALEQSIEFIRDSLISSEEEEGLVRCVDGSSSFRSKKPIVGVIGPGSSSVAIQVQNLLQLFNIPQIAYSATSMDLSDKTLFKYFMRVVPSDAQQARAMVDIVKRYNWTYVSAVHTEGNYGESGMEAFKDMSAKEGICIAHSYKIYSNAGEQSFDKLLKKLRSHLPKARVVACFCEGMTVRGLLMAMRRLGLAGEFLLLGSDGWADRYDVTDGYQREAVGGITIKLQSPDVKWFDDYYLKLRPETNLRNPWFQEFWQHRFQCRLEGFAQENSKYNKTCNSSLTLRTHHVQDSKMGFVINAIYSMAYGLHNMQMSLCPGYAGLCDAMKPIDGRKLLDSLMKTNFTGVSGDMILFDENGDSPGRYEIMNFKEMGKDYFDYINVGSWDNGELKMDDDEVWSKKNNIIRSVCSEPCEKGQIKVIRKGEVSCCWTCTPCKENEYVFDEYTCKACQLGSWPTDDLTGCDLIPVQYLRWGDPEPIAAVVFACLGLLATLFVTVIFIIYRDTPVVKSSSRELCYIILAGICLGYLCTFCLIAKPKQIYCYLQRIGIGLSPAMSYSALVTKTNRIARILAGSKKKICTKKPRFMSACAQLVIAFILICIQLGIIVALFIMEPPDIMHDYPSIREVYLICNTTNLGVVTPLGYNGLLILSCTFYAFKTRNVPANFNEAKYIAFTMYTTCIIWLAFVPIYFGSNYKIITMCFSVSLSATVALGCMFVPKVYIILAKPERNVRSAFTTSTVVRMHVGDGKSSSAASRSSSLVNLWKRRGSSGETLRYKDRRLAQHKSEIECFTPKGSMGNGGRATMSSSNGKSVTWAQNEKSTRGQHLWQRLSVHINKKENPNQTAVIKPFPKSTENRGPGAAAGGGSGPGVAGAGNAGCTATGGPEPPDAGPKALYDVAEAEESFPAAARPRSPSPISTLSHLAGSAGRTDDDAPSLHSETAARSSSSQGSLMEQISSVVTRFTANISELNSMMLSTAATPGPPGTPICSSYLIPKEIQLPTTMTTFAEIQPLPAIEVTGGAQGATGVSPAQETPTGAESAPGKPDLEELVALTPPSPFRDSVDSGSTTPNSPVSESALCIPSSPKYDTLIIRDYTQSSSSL

Structure (SMILES)	EC50 [nM]
C[C@@H](NC(=O)c1ccc(C#Cc2cccc(F)c2)cn1)C(C)(C)O	8
O=C(NC1CCC1)c1ccc(C#Cc2cccc(F)c2)c[n+]1[O-]	25
CC(C)(C)NC(=O)c1ccc(C#Cc2cccc(F)c2)nc1	35
O=C(NC1CCC1)c1ccc(C#Cc2cccc(F)c2)nc1	71
C[C@@H](NC(=O)c1ccc(C#CC2CC2)cn1)C(C)(C)O	1580
O=C(NC1CCC1)c1ccc(C#CC2CC2)cn1	1280
CC(C)(CO)NC(=O)c1ccc(C#Cc2cccc(F)c2)cn1	6
O=C(NC1CCC1)c1ccc(C#CC2CCCC2)cn1	265
CC(C)(C)NC(=O)c1ccc(C#Cc2cccc(F)c2)cn1	13
O=C(c1ccc(C#Cc2cccc(F)c2)nc1)N1CCC(O)CC1	545
O=C(c1ccc(C#Cc2ccccc2)cc1)N1CCC(O)CC1	523
O=C(NC1CC(O)C1)c1ccc(C#Cc2cccc(F)c2)cn1 (stereo not drawn)	193
CC(C)(CO)NC(=O)c1ccc(C#Cc2cccc(F)c2)nc1	213
CC(CO)(CO)NC(=O)c1ccc(C#Cc2cccc(F)c2)cn1	409
O=C(NC1CCC1)c1ccc(C#Cc2cccc(F)c2)cn1	12
C[C@@H](NC(=O)c1ccc(C#Cc2cccc(F)c2)nc1)C(C)(C)O	90
O=C(COCc1ccncc1)N1CCN(c2ccc(F)cc2Cl)CC1	2280
O=C(NC1COC1)c1ccc(C#Cc2cccc(F)c2)nc1	4820

Same assay, conditions: HEK293A rat mGluR5, Ca2+ mobilization fluorescence, PAM; at 29.8 µM (top of the series)

Structure (SMILES)	percent of glutamate ECmax
CC1(NC(=O)c2ccc(C#CC3CC3)cn2)COC1	inactive
CC1(NC(=O)c2ccc(C#Cc3cccc(F)c3)nc2)COC1	40
O=C(NC1CC(O)C1)c1ccc(C#CC2CC2)cc1 (stereo not drawn)	inactive
O=C(c1ccc(C#Cc2cccc(F)c2)cn1)N1CCC(O)CC1	inactive
O=C(NC1CCC1)c1ccc(C#CC2CC2)c[n+]1[O-]	inactive
CC1(NC(=O)c2ccc(C#CC3CC3)cc2)COC1	inactive
CC(C)(CO)NC(=O)c1ccc(C#CC2CC2)nc1	inactive
O=C(NC1CC(O)C1)c1ccc(C#CC2CC2)cn1 (stereo not drawn)	inactive
CC1(NC(=O)c2ccc(C#CC3CC3)nc2)COC1	inactive
CC(C)(CO)NC(=O)c1ccc(C#CC2CC2)cn1	inactive
O=C(O)c1ccc(C#Cc2cccc(F)c2)cn1	inactive
O=C(c1ccc(C#Cc2cccc(F)c2)cn1)N1CCCCC1	inactive
CC(C)(CO)NC(=O)c1ccc(C#CC2CC2)cc1	inactive
C[C@@H](NC(=O)c1ccc(C#CC2CC2)nc1)C(C)(C)O	inactive
C[C@@H](NC(=O)c1ccc(C#CC2CC2)cc1)C(C)(C)O	45
